Test results as given in patent US20260286316A1, “METHOD OF PRODUCTION OF MODIFIED PHAGE AND METHOD OF TREATMENT USING SAME” (priority 2022, published 2026).
Values after ≈ are worked out from the molar mass of the structure shown.

Key:
S. aureus ATCC51650 = experiment: Clindamycin MIC, broth microdilution; assay type: cell-based; settings: Staphylococcus aureus
Experimental: (§1) The minimum inhibitory concentration (MIC) of amoxicillin, vancomycin, erythromycin, clindamycin and azithromycin against the S. aureus strains was assessed using the broth microdilution technique as previously described (Wiegand I et al., Nature protocols 3 (2): 163-175, 2008) and breakpoints defined according to CSLI guidelines. Clinical strains resistant to at least one antibiotic in three or more antibiotic categories were defined as multidrug resistant (MDR).

S. aureus CI11 = experiment: Clindamycin MIC, broth microdilution; assay type: cell-based; settings: Staphylococcus aureus
Experimental: as §1

[1] = tested on: phage non-sensitive S. aureus strains (C43, C330, C285 and C319); experiment: Phage and clindamycin combination treatment (OD600); assay type: cell-based, Staphylococcus aureus; settings: ½ MIC clindamycin only or phage only (MOI=1), 24 hours
Text: FIG. 6 provides graphical results showing that the combination of S. aureus phage and ½ MIC clindamycin kills non-sensitive S. aureus strains: (A) S. aureus C43 treated with APTC-SA-2 and ½ MIC clindamycin; (B) S. aureus C330 treated with APTC-SA-2 and ½ MIC clindamycin; (C) S. aureus ATCC25923 treated with APTC-SA-2 and ½ MIC clindamycin; (D) S. aureus C285 treated with APTC-SA-12 and ½ MIC clindamycin; (E) S. aureus C319 treated with APTC-SA-12 and ½ MIC clindamycin; and (F) S. aureus ATCC25923 treated with APTC-SA-12 and ½ MIC clindamycin. Significance was determined compared to untreated control. Data expressed as mean±SEM for three independent experiments. ****, p<0.0001; ns, no significant. C=clindamycin;
A phage and clindamycin synergy assay was performed using 96 well plates. In brief, selected S. aureus strains (phage non-sensitive) were grown on 1.5% TSA at 37° C. overnight. A single colony was transferred to TSB to generate a culture with a starting concentration of 5×10^5 CFU/ml. Phages were added to the bacteria culture at a MOI of 1 according to phage titers. Clindamycin was added to the cultures at ½ MIC (according to the MIC assay result). Optical density (Gorski A et al., Antibiotics (Basel) 9 (11), 2020) readings at 600 nm were recorded after 24 hours.

S. aureus CI3 = experiment: Antibiotic sensitivity of the isolate selected for in vivo experiments; assay type: cell-based, Staphylococcus aureus
Experimental: as §1
A fresh culture of CI3 on 1.5% TSA plates was prepared two days before inoculation. A single colony was resuspended in 0.9% saline (ca. 2 ml) to turbidity reading 0.5 McFarland Units and then a 1 in 100 dilution in TSB was cultured overnight one day before the in vivo experiment. CI3 pellets were harvested and resuspended in fresh TSB to reach 2.5×10^9 Colony Forming Units (CFU)/ml.

[2] = tested on: S. aureus ATCC51650 and CI11; experiment: Time-dependent interaction of phage J-Sa36 and clindamycin (OD600); assay type: cell-based, Staphylococcus aureus; settings: ½ MIC clindamycin only or J-Sa36 (MOI 0.2) only
Experimental: OD600 readings were taken at addition of either phage or clindamycin and following the 24-hour incubation.
The total amount of phage J-Sa36 added into the culture at different time points was adjusted to maintain MOI=0.2, according to the number of bacteria measured via CFU counts at each time point.

[3] = tested on: S. aureus ATCC51650 and CI11 biofilms; experiment: Biofilm viability, AlamarBlue assay; assay type: cell-based, Staphylococcus aureus
Experimental: Briefly, a 1.0 McFarland unit S. aureus culture suspended in 1:15 dilution in TSB was added to 96-well microtiter plates (Costar; Corning Incorporated, Corning, NY, United States of America). Plates were incubated for 48 hours at 37° C. on a rotating platform at 70 rpm (3D Gyratory Mixer; Ratek Instruments, Boronia, VIC, Australia) to allow biofilm formation followed by washing with phosphate-buffered saline. […] Wells were treated for 24 hours at 37° C. with gentle shaking. The AlamarBlue viability assay (Thermo Fisher Scientific, Waltham, MA, United States of America) was used as previously described (Richter K et al., editors. Mind “De GaPP”: in vitro efficacy of deferiprone and gallium-protoporphyrin against Staphylococcus aureus biofilms. International Forum of Allergy & Rhinology; 2016: Wiley Online Library to determine the anti-biofilm activity of the phage. Fluorescence was measured in a microplate reader (FLUOstar OPTIMA, BMG LABTECH, Offenburg, Germany) and the percent reduction of biofilm after treatment determined relative to untreated controls.

With `CCC[C@@H]1C[C@@H](C(=O)N[C@@H]([C@H]2O[C@H](SC)[C@H](O)[C@@H](O)[C@H]2O)[C@H](C)Cl)N(C)C1` [clindamycin] the MIC (S. aureus ATCC51650) was 0.2 µg/mL (≈ 0.471 µM), the MIC (S. aureus CI11) was 0.2 µg/mL (≈ 0.471 µM) and the “growth of S. aureus bacteria vs control, single agent” value [1] was “similar”. The “antibiotic sensitivity of the isolate” value (S. aureus CI3) was “sensitive”, the “bacterial viability at 24 hours, single agent” value [2] was “did not significantly affect bacterial viability” and the “reduction of clindamycin concentration required to significantly reduce biofilm viability by combination with phage” value [3] was “five”. For the same compound, the minimal effective concentration ([3]; Staphylococcus aureus, ATCC51650, 24 hours treatment, lower concentrations no significant effect, read-out: clindamycin alone: concentration significantly reducing viability of preformed biofilms) was no less than 0.5 µg/mL.
